Assay results as given in ChEMBL document CHEMBL2073931, “Interaction between methotrexate and nonsteroidal anti-inflammatory drugs in organic anion transporter” (Eur J Pharmacol, 2000).

Molecular target: T1, Solute carrier family 22 member 6 (Rattus norvegicus, UniProt O35956)
T1 sequence (O35956 whole entry): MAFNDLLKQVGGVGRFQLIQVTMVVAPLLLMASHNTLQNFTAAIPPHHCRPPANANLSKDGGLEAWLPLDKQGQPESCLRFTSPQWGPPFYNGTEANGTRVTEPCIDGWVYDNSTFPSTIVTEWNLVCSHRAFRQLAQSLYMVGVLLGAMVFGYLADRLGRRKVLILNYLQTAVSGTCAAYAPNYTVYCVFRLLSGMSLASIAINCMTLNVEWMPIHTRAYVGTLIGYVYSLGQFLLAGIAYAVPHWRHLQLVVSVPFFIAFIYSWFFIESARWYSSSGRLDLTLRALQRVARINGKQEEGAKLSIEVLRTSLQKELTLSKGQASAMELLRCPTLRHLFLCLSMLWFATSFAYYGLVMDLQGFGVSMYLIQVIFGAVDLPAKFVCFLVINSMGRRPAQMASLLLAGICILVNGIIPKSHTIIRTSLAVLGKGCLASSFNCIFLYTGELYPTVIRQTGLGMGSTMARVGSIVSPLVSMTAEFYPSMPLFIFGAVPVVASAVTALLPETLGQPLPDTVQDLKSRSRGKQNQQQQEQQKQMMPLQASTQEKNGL
Assay: TP_TRANSPORTER: inhibition of MTX uptake in Xenopus laevis oocytes
Assay type: functional, cell-based, Oocyte
Details: for Activity: xenopus laevis, oocyte

Compound: CC(C(=O)O)c1cccc(C(=O)c2ccccc2)c1 (centres undefined) [KETOPROFEN]
- IC50: 500 nM

Compound: CCCCC1C(=O)N(c2ccccc2)N(c2ccccc2)C1=O [PHENYLBUTAZONE]
- Activity: inhibitor [+]

Compound: COc1ccc2c(c1)c(CC(=O)O)c(C)n2C(=O)c1ccc(Cl)cc1 [INDOMETHACIN]
- Ki: 4.2 µM

Compound: O=C(O)c1ccccc1Nc1cccc(C(F)(F)F)c1 [FLUFENAMIC ACID]
- Activity: inhibitor [+]
